Measured values reported in patent publication US20160052898A1, “NOVEL COMPOUNDS” (BAYER PHARMA AKTIENGESELLSCHAFT, priority 2013, published 2016).
Counter-ions that a name gives are not always drawn.

Key:
Type in all cases: cell-based
[1] = tested on: HEK293 FOP control reporter cell line; test: HEK293 FOP control vector reporter assay; conditions: Homo sapiens; HEK293 FOP control reporter cells, EC50 concentration of recombinant Wnt-3a, 16 hours incubation; read-out: HEK FOP IC50
Method in brief: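 Stable HEK293 cells carrying FOP control vector (non-functional TCF sites), 10000 cells/well plated 24 h before, stimulated with recombinant human Wnt-3a at 2500–5 ng/ml in two-fold steps. Compounds from 50 μM to 15 nM (3.16-fold) in CAFTY buffer pH 7.4 with 2 mM Ca2+, 0.01% BSA, run in parallel with TOP line; luciferase read-out.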

[2] = tested on: HCT116 FOP control reporter cell line; test: HCT116 FOP control vector reporter assay (non-functional TCF elements); conditions: Homo sapiens, HCT-116, 36 h, HCT116 FOP control reporter cells, luciferase expression, 36 hours incubation, 50 μM to 15 nM; read-out: HCT116 FOPFlash IC50
Method in brief: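 Stable HCT116 line carrying the non-functional FOP luciferase construct, 10000 cells/well plated 24 hrs before. Compounds 50 μM to 15 nM (3.16-fold steps) in CAFTY buffer pH 7.4 with 2 mM Ca2+, 36 hours at 37° C; luciferase luminescence read.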

[3] = tested on: wildtype Wnt pathway; test: HEK293 Super TopFlash cellular reporter assay, Wnt-3a stimulated (wildtype Wnt pathway); conditions: Homo sapiens; HEK293 TOP reporter cells, EC50 concentration of recombinant Wnt-3a, 16 hours incubation; read-out: HEK TOP OncoFlash IC50
Method in brief: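 Stable HEK293 Super TopFlash and FOP reporter cells stimulated with recombinant human Wnt-3a (2500–5 ng/ml, two-fold steps). Compounds tested 50 μM to 15 nM in 3.16-fold steps in CAFTY buffer pH 7.4 with 2 mM Ca2+ and 0.01% BSA; luciferase read-out.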

[4] = tested on: constitutive active colorectal cancer cell (CRC) Wnt pathway; test: HCT116 Super TopFlash cellular reporter assay (constitutive active Wnt pathway); conditions: HCT116 TOP reporter cells, luciferase expression, 36 hours incubation, 50 μM to 15 nM
Method in brief: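 HCT116 cells (β-catenin ΔS45) stably carrying Super TopFlash, with a parallel FOP-control line, were plated 24 h ahead. They were exposed 36 h at 37 °C, 5% CO2 to compound from a 50 μM–15 nM, 3.16-fold pre-dilution series in CAFTY buffer (pH 7.4, 2 mM Ca2+, 0.01% BSA). Wnt signalling was read as luciferase luminescence.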

Compound | IC50 [1] [nM] | IC50 [2] [nM] | IC50 [3] [nM] | IC50 ([4]; Homo sapiens, HCT-116, 36 h) [nM] | IC50 [4] [nM]
O=C(Nc1ccc(-c2ccccc2)cc1)c1ccc(OC(F)(F)F)c(NC(=O)C2(N3CCOCC3)CC2)c1 [Example 94, N-(biphenyl-4-yl)-3-({[1-(morpholin-4-yl)cyclopropyl]carbonyl}amino)-4-(trifluoromethoxy)benzamide] | 7600 | ≥ 50000 | 5.09 | 10.9 | –
COCc1ccc(C(=O)Nc2ccc(-c3ccccc3)cc2)cc1NC(=O)C1(N2CCOCC2)CC1 [Example 95, N-(biphenyl-4-yl)-4-(methoxymethyl)-3-({[1-(morpholin-4-yl)cyclopropyl]carbonyl}amino)benzamide] | ≥ 50000 | ≥ 50000 | 16 | 4.58 | –
COCc1ccc(C(=O)Nc2ccc(-c3ccccc3)cc2)cc1NC(=O)C1(N2CCN(C)CC2)CC1 [Example 96, N-(biphenyl-4-yl)-4-(methoxymethyl)-3-({[1-(4-methylpiperazin-1-yl)cyclopropyl]carbonyl}amino)benzamide hydrochloride (1:1)] | 9600 | 8250 | 40 | 34.5 | –
O=C(Nc1ccc(-c2ccccc2)cc1)c1ccc(Cl)c(NC(=O)C2(N3CCOCC3)CC2)c1 [Example 97, N-(biphenyl-4-yl)-4-chloro-3-({[1-(morpholin-4-yl)cyclopropyl]carbonyl}amino)benzamide] | ≥ 50000 | ≥ 50000 | 250 | 24.2 | –
O=C(Nc1ccc(-c2ccccc2)cc1)c1ccc(C(F)(F)F)c(NC(=O)C2(N3CCOCC3)CC2)c1 [Example 98, N-(biphenyl-4-yl)-3-({[1-(morpholin-4-yl)cyclopropyl]carbonyl}amino)-4-(trifluoromethyl)benzamide] | ≥ 50000 | ≥ 50000 | 86 | 7.24 | –
COc1ccc(C(=O)Nc2ccc(-c3ccccc3)cc2)cc1NC(=O)C1(N2CCN(C)CC2)CC1 [Example 100, N-(biphenyl-4-yl)-4-methoxy-3-({[1-(4-methylpiperazin-1-yl)cyclopropyl]carbonyl}amino)benzamide hydrochloride (1:1)] | 19000 | 20800 | 90 | – | 24.8
COc1ccc(C(=O)Nc2ccc(-c3ccccc3)cc2)cc1NC(=O)C1(N2CCOCC2)CC1 [Example 101, N-(biphenyl-4-yl)-4-methoxy-3-({[1-(morpholin-4-yl)cyclopropyl]carbonyl}amino)benzamide] | 17000 | ≥ 50000 | 11 | 5.21 | –
CCNC(=O)c1ccc(C(=O)Nc2ccc(-c3ccccc3)cc2)cc1NC(=O)CN1CCOCC1 [Example 102, N^4-(biphenyl-4-yl)-N^1-ethyl-2-[(morpholin-4-ylacetyl)amino]terephthalamide] | 5800 | 28900 | 41 | 45.9 | –
COCCNC(=O)c1ccc(C(=O)Nc2ccc(-c3ccccc3)cc2)cc1NC(=O)CN1CCOCC1 [Example 106, N^4-(biphenyl-4-yl)-N^1-(2-methoxyethyl)-2-[(morpholin-4-ylacetyl)amino]terephthalamide] | ≥ 50000 | ≥ 50000 | 76 | 17.2 | –
O=C(CN1CCOCC1)Nc1cc(C(=O)Nc2ccc(-c3ccccc3)cc2)ccc1C(=O)NC1CC1 [Example 107, N^4-(biphenyl-4-yl)-N^1-cyclopropyl-2-[(morpholin-4-ylacetyl)amino]terephthalamide] | 36000 | 21000 | 310 | 38.5 | –
COCCCNC(=O)c1ccc(C(=O)Nc2ccc(-c3ccccc3)cc2)cc1NC(=O)CN1CCOCC1 [Example 108, N^4-(biphenyl-4-yl)-N^1-(3-methoxypropyl)-2-[(morpholin-4-ylacetyl)amino]terephthalamide] | ≥ 50000 | 43500 | 15.6 | 44.5 | –
CSc1ccc(C(=O)Nc2ccc(-c3ccccc3)cc2)cc1NC(=O)CN1CCOCC1 [Example 109, N-(biphenyl-4-yl)-4-(methylsulfanyl)-3-[(morpholin-4-ylacetyl)amino]benzamide] | ≥ 50000 | ≥ 50000 | 280 | 48.8 | –
O=C(CN1CCOCC1)Nc1cc(C(=O)Nc2ccc(-c3ccccc3)cc2)ccc1OC1CC1 [Example 112, N-(biphenyl-4-yl)-4-(cyclopropyloxy)-3-[(morpholin-4-ylacetyl)amino]benzamide] | ≥ 50000 | ≥ 50000 | 77 | 83.2 | –
CN1CCN(C2(C(=O)Nc3cc(C(=O)Nc4ccc(-c5ccccc5)cc4)ccc3OC3CC3)CC2)CC1 [Example 114, N-(biphenyl-4-yl)-4-(cyclopropyloxy)-3-({[1-(4-methylpiperazin-1-yl)cyclopropyl]carbonyl}amino)benzamide] | ≥ 50000 | 21000 | 36 | 15.8 | –
O=C(Nc1ccc(-c2ccccc2)cc1)c1ccc(OC2CC2)c(NC(=O)C2(N3CCN(C4CC4)CC3)CC2)c1 [Example 115, N-(biphenyl-4-yl)-4-(cyclopropyloxy)-3-({[1-(4-cyclopropylpiperazin-1-yl)cyclopropyl]carbonyl}amino)benzamide] | ≥ 50000 | ≥ 50000 | 170 | 36.2 | –
CS(=O)(=O)Cc1ccc(C(=O)Nc2ccc(-c3ccccc3)cc2)cc1NC(=O)CN1CCOCC1 [Example 124, N-(biphenyl-4-yl)-4-[(methylsulfonyl)methyl]-3-[(morpholin-4-ylacetyl)amino]benzamide] | 11000 | ≥ 50000 | 110 | 34 | –
O=C(CN1CCOCC1)Nc1cc(C(=O)Nc2ccc(-c3ccccc3)cc2)ccc1OCC(F)(F)F [Example 127, N-(biphenyl-4-yl)-3-[(morpholin-4-ylacetyl)amino]-4-(2,2,2-trifluoroethoxy)benzamide] | 31000 | ≥ 50000 | 110 | 44.5 | –
